Literature values, collected in US12527811B2, “Defibrotide for the prevention and treatment of cytokine release syndrome and neurotoxicity associated with immunodepletion” (priority 2018, dated 2026).
Where two headings read alike, the source gives them in different places.

Columns and labels:
IL-6 = IL-6 (Homo sapiens, UniProt P05231); conditions: cited from earlier work
[1] = in vivo; cited from earlier work
IL-6R = target: T1, IL-6R (Homo sapiens, UniProt P08887); conditions: read-out: affinity (Kd) for IL-6R; cited from earlier work
T1 sequence (P08887 20-468): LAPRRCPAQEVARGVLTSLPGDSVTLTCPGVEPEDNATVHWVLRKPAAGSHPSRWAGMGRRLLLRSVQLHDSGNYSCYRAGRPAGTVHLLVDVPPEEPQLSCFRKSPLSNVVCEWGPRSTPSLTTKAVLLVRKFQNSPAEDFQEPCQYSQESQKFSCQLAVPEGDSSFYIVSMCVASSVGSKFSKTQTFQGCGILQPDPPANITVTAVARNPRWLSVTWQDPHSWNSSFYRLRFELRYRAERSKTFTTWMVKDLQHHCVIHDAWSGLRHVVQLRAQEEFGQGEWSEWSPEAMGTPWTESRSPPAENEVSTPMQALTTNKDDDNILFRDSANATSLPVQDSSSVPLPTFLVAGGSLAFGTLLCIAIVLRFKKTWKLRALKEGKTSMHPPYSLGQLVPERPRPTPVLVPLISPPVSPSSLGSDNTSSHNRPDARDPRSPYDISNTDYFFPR

[2] = JULIET, ninety-three adult patients with relapsed or refractory DLBLC; cited from earlier work
[3] = ZUMA-1, one hundred and one adult patients with refractory aggressive B-cell NHL; cited from earlier work

IL-6, sequence (P05231 30-212): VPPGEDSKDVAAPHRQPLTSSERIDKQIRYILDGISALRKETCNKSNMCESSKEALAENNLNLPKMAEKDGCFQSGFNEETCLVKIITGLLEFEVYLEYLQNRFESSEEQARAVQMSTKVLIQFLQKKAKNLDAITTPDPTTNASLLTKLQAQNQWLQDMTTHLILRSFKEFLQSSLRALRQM

In the case of siltuximab, the Kd (IL-6) is listed as roughly 1 pM and the “effect on CRS symptoms” value [1] is listed as “rapid reversal of CRS symptoms in most patients”.

In the case of tocilizumab [reference compound], the Kd (IL-6R) is given as 2.54 nM.

In the case of IL-6: cytokine that binds IL-6R, the Kd (IL-6R) is given as roughly 1 nM.

In the case of tisagenlecleucel, the “rate of grade>3 CRES” value [2] is given as 12% and the “rate of grade>3 CRS” value [2] is given as 22%.

In the case of Axicabtagene ciloleucel [Axi-cel], the “rate of grade>3 CRES” value [3] is given as 28% and the “rate of grade>3 CRS” value [3] is given as 13%.
